Holding throughout (test): AK assay 384-well format, Prestwick library screening
For test [1], the system named is E. faecium. It is filed as cell-based, Enterococcus faecium. The note with it: Enterococcus faecium, 3 h, 50 μM final drug concentration.
Test [2] deals with S. aureus strain USA300-0114. In kind it is cell-based, Staphylococcus aureus. The note with it: Staphylococcus aureus, USA300, 3 h, 50 μM final drug concentration.
The test system of test [3] is K. pneumoniae. In kind it is cell-based, Klebsiella pneumoniae. The following applies: Klebsiella pneumoniae, 3 h, 50 μM final drug concentration.
Test [4] has as its system A. baumannii strain 98-37-09. In kind it is cell-based, Acinetobacter baumannii. The following applies: Acinetobacter baumannii, 983709, 3 h, 50 μM final drug concentration.
In test [5] the test system is P. aeruginosa. It is filed as cell-based, Pseudomonas aeruginosa. The note with it: Pseudomonas aeruginosa, 3 h, 50 μM final drug concentration.
Test [6] concerns E. cloacae. In kind it is cell-based, Enterobacter cloacae. The following applies: Enterobacter cloacae, 3 h, 50 μM final drug concentration.
Test [7] deals with E. coli. In kind it is cell-based, Escherichia coli. The following applies: Escherichia coli, 3 h, 50 μM final drug concentration.
[8] abbreviates: planktonic, cutoff for positive 3-fold increase, read-out: AK-based Prestwick Library Screening Results, E. faecium (fold increase in extracellular AK activity).
[9] abbreviates: planktonic, cutoff for positive 3-fold increase, read-out: AK-based Prestwick Library Screening Results, S. aureus (fold increase in extracellular AK activity).
[10] abbreviates: planktonic, cutoff for positive 3-fold increase, read-out: AK-based Prestwick Library Screening Results, K. pneumoniae (fold increase in extracellular AK activity).
The mark [11] stands for this setting: planktonic, cutoff for positive 3-fold increase, read-out: AK-based Prestwick Library Screening Results, A. baumannii (fold increase in extracellular AK activity).
The mark [12] stands for this setting: planktonic, cutoff for positive 3-fold increase, read-out: AK-based Prestwick Library Screening Results, P. aeruginosa (fold increase in extracellular AK activity).
Setting [13] is: planktonic, cutoff for positive 3-fold increase, read-out: AK-based Prestwick Library Screening Results, E. cloacae (fold increase in extracellular AK activity).
[14] abbreviates: planktonic, cutoff for positive 3-fold increase, read-out: AK-based Prestwick Library Screening Results, E. coli (fold increase in extracellular AK activity).
The mark [15] stands for this setting: 384-well format, cutoff for positive-scoring molecules 3-fold increase, read-out: AK-based Prestwick Library Screening Results, E. faecium (increase in extracellular AK activity).
Setting [16] is: 384-well format, cutoff for positive-scoring molecules 3-fold increase, read-out: AK-based Prestwick Library Screening Results, S. aureus (increase in extracellular AK activity).
The mark [17] stands for this setting: 384-well format, cutoff for positive-scoring molecules 3-fold increase, read-out: AK-based Prestwick Library Screening Results, K. pneumoniae (increase in extracellular AK activity).
Setting [18] is: 384-well format, cutoff for positive-scoring molecules 3-fold increase, read-out: AK-based Prestwick Library Screening Results, A. baumannii (increase in extracellular AK activity).
[19] abbreviates: 384-well format, cutoff for positive-scoring molecules 3-fold increase, read-out: AK-based Prestwick Library Screening Results, P. aeruginosa (increase in extracellular AK activity).
Setting [20] is: 384-well format, cutoff for positive-scoring molecules 3-fold increase, read-out: AK-based Prestwick Library Screening Results, E. cloacae (increase in extracellular AK activity).
Setting [21] is: 384-well format, cutoff for positive-scoring molecules 3-fold increase, read-out: AK-based Prestwick Library Screening Results, E. coli (increase in extracellular AK activity).

Molecules are shown by their SMILES. Counter-ions that a name gives are not always drawn. Like-named read-outs stand apart in the source and are kept apart here.

On to `COc1cc2nc(N(C)CCCNC(=O)C3CCCO3)nc(N)c2cc1OC` (centres unmarked) [Alfuzosin hydrochloride], for which the fold induction at 50 µM in test [1] (planktonic E. faecium, 384-well, cutoff for positive-scoring molecules 3-fold increase, read-out: AK-based Prestwick Library Screening Results: E. faecium (increase in extracellular AK activity)) came out at 0.9; in test [2] (planktonic S. aureus, 384-well, cutoff for positive-scoring molecules 3-fold increase, read-out: AK-based Prestwick Library Screening Results: S. aureus (increase in extracellular AK activity)), 0.3; in test [3] (planktonic K. pneumoniae, 384-well, cutoff for positive-scoring molecules 3-fold increase, read-out: AK-based Prestwick Library Screening Results: K. pneumoniae (increase in extracellular AK activity)) it was 0.4; in test [4] (planktonic A. baumannii, 384-well, cutoff for positive-scoring molecules 3-fold increase, read-out: AK-based Prestwick Library Screening Results: A. baumannii (increase in extracellular AK activity)), 0.4; in test [5] (planktonic P. aeruginosa, 384-well, cutoff for positive-scoring molecules 3-fold increase, read-out: AK-based Prestwick Library Screening Results: P. aeruginosa (increase in extracellular AK activity)), 0.4; in test [6] (planktonic E. cloacae, 384-well, cutoff for positive-scoring molecules 3-fold increase, read-out: AK-based Prestwick Library Screening Results: E. cloacae (increase in extracellular AK activity)), 0.4. For the same compound, in test [7] (planktonic E. coli, 384-well, cutoff for positive-scoring molecules 3-fold increase, read-out: AK-based Prestwick Library Screening Results: E. coli (increase in extracellular AK activity)), the fold induction at 50 µM was determined as 0.5.
In the case of `C=CCN1CCCC1CNC(=O)c1cc2[nH]nnc2cc1OC` (centres unmarked) [Alizapride HCl], the fold induction at 50 µM in test [1] (setting [8]) came out at 1; in test [2] (setting [9]), 1; in test [3] (setting [10]), 0.9; in test [4] (setting [11]), 1.1; in test [5] (setting [12]) it was 1.1; in test [6] (setting [13]) it was 1.4. Moreover, the fold induction at 50 µM in test [7] (setting [14]) was 1.
`NC(=O)NC1NC(=O)NC1=O` (centres unmarked) [Allantoin]: the fold induction at 50 µM in test [1] (setting [15]) was found to be 0.7; in test [2] (setting [16]) it was 1.4; in test [3] (setting [17]) it was 0.4; in test [4] (setting [18]), 0.4; in test [5] (setting [19]), 0.3; in test [6] (setting [20]) it was 0.3. In addition, the fold induction at 50 µM in test [7] (setting [21]) was 0.4.
Consider `C=CCc1ccccc1OCC(O)CNC(C)C` (centres unmarked) [Alprenolol hydrochloride], for which the fold induction at 50 µM worked out at 0.9 in test [1] (setting [15]); 0.6 in test [2] (setting [16]); 0.5 in test [3] (setting [17]); 0.7 in test [4] (setting [18]); 0.5 in test [5] (setting [19]); 0.4 in test [6] (setting [20]). Further, the fold induction at 50 µM in test [7] (setting [21]) is 0.6.
In the case of `CCCCC[C@H](O)/C=C/[C@H]1[C@H](O)CC(=O)[C@@H]1CCCCCCC(=O)O` [Alprostadil], the fold induction at 50 µM in test [1] (planktonic E. faecium, positive cutoff 3-fold increase, read-out: AK-based Prestwick library screening result, E. faecium (fold increase in extracellular AK activity)) was 1; in test [2] (planktonic S. aureus, positive cutoff 3-fold increase, read-out: AK-based Prestwick library screening result, S. aureus (fold increase in extracellular AK activity)) it was 1.1; in test [3] (planktonic K. pneumoniae, positive cutoff 3-fold increase, read-out: AK-based Prestwick library screening result, K. pneumoniae (fold increase in extracellular AK activity)) it was 1.1; in test [4] (planktonic A. baumannii, positive cutoff 3-fold increase, read-out: AK-based Prestwick library screening result, A. baumannii (fold increase in extracellular AK activity)), 1; in test [5] (planktonic P. aeruginosa, positive cutoff 3-fold increase, read-out: AK-based Prestwick library screening result, P. aeruginosa (fold increase in extracellular AK activity)), 1.1; in test [6] (planktonic E. cloacae, positive cutoff 3-fold increase, read-out: AK-based Prestwick library screening result, E. cloacae (fold increase in extracellular AK activity)) it was 1.4. The fold induction at 50 µM in test [7] (planktonic E. coli, positive cutoff 3-fold increase, read-out: AK-based Prestwick library screening result, E. coli (fold increase in extracellular AK activity)) worked out at 1.3.
In the case of `C=CCSCC1Nc2cc(Cl)c(S(N)(=O)=O)cc2S(=O)(=O)N1` (centres unmarked) [Althiazide], the fold induction at 50 µM in test [1] (setting [8]) was 1; in test [2] (setting [9]) it was 0.4; in test [3] (setting [10]), 0.4; in test [4] (setting [11]), 0.4; in test [5] (setting [12]), 0.4; in test [6] (setting [13]) it was 0.3. Besides, in test [7] (setting [14]), the fold induction at 50 µM was found to be 0.4.
On to `CN(C)c1nc(N(C)C)nc(N(C)C)n1` [Altretamine], for which the fold induction at 50 µM in test [1] (cutoff for positive-scoring molecules 3-fold increase, read-out: AK-based Prestwick Library Screening Results, E. faecium (fold increase in extracellular AK activity)) was determined as 1; in test [2] (cutoff for positive-scoring molecules 3-fold increase, read-out: AK-based Prestwick Library Screening Results, S. aureus (fold increase in extracellular AK activity)), 1.1; in test [3] (cutoff for positive-scoring molecules 3-fold increase, read-out: AK-based Prestwick Library Screening Results, K. pneumoniae (fold increase in extracellular AK activity)), 1; in test [4] (cutoff for positive-scoring molecules 3-fold increase, read-out: AK-based Prestwick Library Screening Results, A. baumannii (fold increase in extracellular AK activity)), 1.3; in test [5] (cutoff for positive-scoring molecules 3-fold increase, read-out: AK-based Prestwick Library Screening Results, P. aeruginosa (fold increase in extracellular AK activity)) it was 1.2; in test [6] (cutoff for positive-scoring molecules 3-fold increase, read-out: AK-based Prestwick Library Screening Results, E. cloacae (fold increase in extracellular AK activity)), 1.4. Also, in test [7] (cutoff for positive-scoring molecules 3-fold increase, read-out: AK-based Prestwick Library Screening Results, E. coli (fold increase in extracellular AK activity)), the fold induction at 50 µM stood at 1.3.
Consider `Nc1c(Br)cc(Br)cc1CN[C@H]1CC[C@H](O)CC1` [Ambroxol hydrochloride], for which the fold induction at 50 µM in test [1] (planktonic E. faecium, cutoff for positive-scoring molecules 3-fold increase, read-out: AK-based Prestwick Library Screening Results, E. faecium (increase in extracellular AK activity)) stood at 1; in test [2] (planktonic S. aureus, cutoff for positive-scoring molecules 3-fold increase, read-out: AK-based Prestwick Library Screening Results, S. aureus (increase in extracellular AK activity)), 1; in test [3] (planktonic K. pneumoniae, cutoff for positive-scoring molecules 3-fold increase, read-out: AK-based Prestwick Library Screening Results, K. pneumoniae (increase in extracellular AK activity)), 1; in test [4] (planktonic A. baumannii, cutoff for positive-scoring molecules 3-fold increase, read-out: AK-based Prestwick Library Screening Results, A. baumannii (increase in extracellular AK activity)), 1.2; in test [5] (planktonic P. aeruginosa, cutoff for positive-scoring molecules 3-fold increase, read-out: AK-based Prestwick Library Screening Results, P. aeruginosa (increase in extracellular AK activity)), 1.2; in test [6] (planktonic E. cloacae, cutoff for positive-scoring molecules 3-fold increase, read-out: AK-based Prestwick Library Screening Results, E. cloacae (increase in extracellular AK activity)) it was 1.5. In addition, the fold induction at 50 µM in test [7] (planktonic E. coli, cutoff for positive-scoring molecules 3-fold increase, read-out: AK-based Prestwick Library Screening Results, E. coli (increase in extracellular AK activity)) was determined as 1.

For the origin of these results see patent publication US10004701B2, “Methods and compositions for treating infection” (UNIVERSITY OF ROCHESTER, priority 2012, dated 2018).
